The test concerns the target T1, hGLP1 receptor (Homo sapiens, UniProt P43220).
T1 construct: expressed in transfected cells; host or cells: HEK (human embryonic kidney) cells co-expressing hGLP1 receptor and CRE-Luciferase
Description: cAMP HTRF agonist assay in HEK cells co-expressing hGLP1 receptor and CRE-Luciferase. It counts as cell-based. The procedure:
Human embryonic kidney cells (HEK) co-expressing the hGLP1 receptor and CRE-Luciferase construct were used to determine agonist potency in this assay. The cells were thawed briefly at 37° C., transferred to a sterile tube and re-suspended in complete media at 37° C. Cells were centrifuged at 1000 rpm for 5 minutes and cells collected; cells were re-suspended in assay buffer consisting of DPBS (GIBCO) with 500 μM of the phosphodiesterase inhibitor IBMX. […] The optimal cell density was determined to be 1000 cells/well; cells were added to wells in 384-well plates containing appropriate pre-prepared dilutions of compounds (test peptides or reference compound exendin-4), sealed and incubated with CO2 for 30 min. Test peptide solutions were diluted from 10 mM stock solutions; for most peptides an initial run was performed in duplicate from a maximal concentration of 1.0 μM, with 11 concentrations tested for each peptide using serial 1:3 dilution from this maximal concentration. […] The agonist assay was a homogeneous time-resolved fluorescence (HTRF) assay (Cisbio).
Following incubation of the cells for 30 minutes with test or reference peptides, 5 μL of the cAMP acceptor cAMP-d2, prepared previously as a working solution from frozen stock (1:20 dilution), was added to each well of the assay plate, along with 5 μL of anti-cAMP antibody-cryptate working solution (diluted 1:20 from frozen stock). The wells were incubated for 1 hour at room temperature, and fluorescence was then read at 665 and 615 nm with an Envision reader with TRF laser. Data were saved and analyzed using Prism software (GraphPad). Concentration-response analysis was performed using 4-parameter logistic fits of the resulting data, and EC50 values obtained for each test and reference compound.

Setting [1] is: Table 5, 0% albumin, read-out: cAMP EC50, nM (0% albumin).
The mark [2] stands for this setting: cAMP EC50, nM (0.1% albumin), Table 1, 0.1% albumin.
The mark [3] stands for this setting: cAMP EC50, nM (0.1% albumin), Table 4, 0.1% albumin.
Where [4] appears, read: cAMP EC50, nM (0.1% albumin), Table 6, 0.1% albumin.

The values that follow come from patent US20230015478A1, “GLP-1 RECEPTOR AGONISTS HAVING IMPROVED PHARMACOLOGICAL AND DRUG DELIVERY PROPERTIES” (priority 2021, published 2023).

Where two headings read alike, the source gives them in different places. Square brackets hold non-standard residues; d marks the D form. Peptide text beside a SMILES is read from it. Bip = N[C@@H](Cc1ccc(-c2ccccc2)cc1)C(=O)O; αMePhe(2-F) = C[C@](N)(Cc1ccccc1F)C(=O)O; hPhe = N[C@@H](CCc1ccccc1)C(=O)O; Aib = CC(C)(N)C(=O)O

What is called EC50 is the midpoint of the concentration-response curve.

T1 sequence (P43220 24-463): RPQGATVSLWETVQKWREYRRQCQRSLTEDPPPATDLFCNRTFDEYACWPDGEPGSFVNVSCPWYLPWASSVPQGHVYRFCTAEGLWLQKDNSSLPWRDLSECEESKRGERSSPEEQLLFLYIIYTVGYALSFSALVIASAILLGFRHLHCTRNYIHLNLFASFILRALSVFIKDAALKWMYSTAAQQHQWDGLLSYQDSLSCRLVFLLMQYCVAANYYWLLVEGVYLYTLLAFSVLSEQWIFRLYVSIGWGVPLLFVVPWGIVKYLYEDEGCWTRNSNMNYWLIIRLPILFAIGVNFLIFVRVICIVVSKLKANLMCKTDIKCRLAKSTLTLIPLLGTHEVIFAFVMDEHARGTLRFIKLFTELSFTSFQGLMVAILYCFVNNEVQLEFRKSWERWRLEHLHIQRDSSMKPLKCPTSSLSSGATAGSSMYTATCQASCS

Consider `C[C@@H](O)[C@H](NC(=O)CNC(=O)[C@H](CCC(=O)O)NC(=O)C(C)(C)NC(=O)[C@@H](N)Cc1c[nH]cn1)C(=O)N[C@@H](Cc1ccccc1)C(=O)N[C@H](C(=O)N[C@@H](CO)C(=O)N[C@@H](CC(=O)O)C(=O)N[C@@H](Cc1ccc(-c2ccccc2)cc1)C(=O)N[C@@H](Cc1ccc(-c2ccccc2)cc1)C(N)=O)[C@@H](C)O` [1-1, H2N-His-Aib-Glu-Gly-Thr-Phe-Thr-Ser-Asp-Bip-Bip-C(O)NH2] (H-H[Aib]EGTFTSD[Bip][Bip]-NH2), for which the EC50 by setting is: under setting [1], 6.82 nM; under setting [2], 6.82 nM.

With `C[C@@H](O)[C@H](NC(=O)CNC(=O)[C@H](CCC(=O)O)NC(=O)C(C)(C)NC(=O)[C@@H](N)Cc1c[nH]cn1)C(=O)N[C@@](C)(Cc1ccccc1F)C(=O)N[C@H](C(=O)N[C@@H](CO)C(=O)N[C@@H](CC(=O)O)C(=O)N[C@@H](Cc1ccc(-c2ccccc2)cc1)C(=O)N[C@@H](Cc1ccc(-c2ccccc2)cc1)C(N)=O)[C@@H](C)O` [1-2, H2N-His-Aib-Glu-Gly-Thr-α-MePhe(2-F)-Thr-Ser-Asp-Bip-Bip-C(O)NH2] (H-H[Aib]EGT[αMePhe(2-F)]TSD[Bip][Bip]-NH2), the EC50 reads like this: under setting [1], 0.09 nM; under setting [2], 0.09 nM; (cAMP EC50, nM (0.1% albumin), Table 3, 0.1% albumin) 0.09 nM; under setting [3], 0.09 nM; under setting [4], 0.09 nM.

In the case of `C[C@@H](O)[C@H](NC(=O)CNC(=O)[C@H](CCC(=O)O)NC(=O)C(C)(C)NC(=O)[C@@H](N)Cc1c[nH]cn1)C(=O)N[C@@](C)(Cc1ccccc1F)C(=O)N[C@H](C(=O)N[C@@H](CO)C(=O)N[C@@H](CC(=O)O)C(=O)N[C@@H](CCc1ccccc1)C(=O)N[C@@H](Cc1ccc(-c2ccccc2)cc1)C(N)=O)[C@@H](C)O` [1-3, H2N-His-Aib-Glu-Gly-Thr-α-MePhe(2-F)-Thr-Ser-Asp-Hph-Bip-C(O)NH2] (H-H[Aib]EGT[αMePhe(2-F)]TSD[hPhe][Bip]-NH2), the EC50 under setting [1] turned out to be 11 nM.

Turning to `C[C@@H](O)[C@H](NC(=O)CNC(=O)[C@H](CCC(=O)O)NC(=O)C(C)(C)NC(=O)[C@@H](N)Cc1c[nH]cn1)C(=O)N[C@@](C)(Cc1ccccc1F)C(=O)N[C@H](C(=O)N[C@@H](CO)C(=O)N[C@@H](CC(=O)O)C(=O)N[C@@H](Cc1ccc(-c2ccccc2)cc1)C(=O)N[C@@H](CCc1ccccc1)C(N)=O)[C@@H](C)O` [1-4, H2N-His-Aib-Glu-Gly-Thr-α-MePhe(2-F)-Thr-Ser-Asp-Bip-Hph-C(O)NH2] (H-H[Aib]EGT[αMePhe(2-F)]TSD[Bip][hPhe]-NH2), the EC50 amounted to 11 nM under setting [1] and 11 nM under setting [4].

For the molecule `C[C@@H](O)[C@H](NC(=O)CNC(=O)[C@H](CCC(=O)O)NC(=O)C(C)(C)NC(=O)[C@H](Cc1c[nH]cn1)NC(=O)[C@@H](N)CCCNC(=N)N)C(=O)N[C@@H](Cc1ccccc1)C(=O)N[C@H](C(=O)N[C@@H](CO)C(=O)N[C@@H](CC(=O)O)C(=O)N[C@@H](Cc1ccc(-c2ccccc2)cc1)C(=O)N[C@@H](Cc1ccc(-c2ccccc2)cc1)C(N)=O)[C@@H](C)O` [2-1, H2N-Arg-His-Aib-Glu-Gly-Thr-Phe-Thr-Ser-Asp-Bip-Bip-C(O)NH2] (H-RH[Aib]EGTFTSD[Bip][Bip]-NH2), the midpoint of the response under setting [3], the EC50, lay at 10.6 nM.

`C[C@@H](O)[C@H](NC(=O)CNC(=O)[C@H](CCC(=O)O)NC(=O)C(C)(C)NC(=O)[C@H](Cc1c[nH]cn1)NC(=O)[C@@H](N)CCC(=O)O)C(=O)N[C@@H](Cc1ccccc1)C(=O)N[C@H](C(=O)N[C@@H](CO)C(=O)N[C@@H](CC(=O)O)C(=O)N[C@@H](Cc1ccc(-c2ccccc2)cc1)C(=O)N[C@@H](Cc1ccc(-c2ccccc2)cc1)C(N)=O)[C@@H](C)O` [2-2, H2N-Glu-His-Aib-Glu-Gly-Thr-Phe-Thr-Ser-Asp-Bip-Bip-C(O)NH2] (H-EH[Aib]EGTFTSD[Bip][Bip]-NH2): the concentration for a half-maximal effect (EC50) under setting [3] is 40.1 nM.

`C[C@@H](O)[C@H](NC(=O)CNC(=O)[C@H](CCC(=O)O)NC(=O)C(C)(C)NC(=O)[C@H](Cc1c[nH]cn1)NC(=O)CN)C(=O)N[C@@H](Cc1ccccc1)C(=O)N[C@H](C(=O)N[C@@H](CO)C(=O)N[C@@H](CC(=O)O)C(=O)N[C@@H](Cc1ccc(-c2ccccc2)cc1)C(=O)N[C@@H](Cc1ccc(-c2ccccc2)cc1)C(N)=O)[C@@H](C)O` [2-3, H2N-Gly-His-Aib-Glu-Gly-Thr-Phe-Thr-Ser-Asp-Bip-Bip-C(O)NH2] (H-GH[Aib]EGTFTSD[Bip][Bip]-NH2): under setting [3], the EC50 was 21.1 nM.

`C[C@@H](O)[C@H](NC(=O)CNC(=O)[C@H](CCC(=O)O)NC(=O)C(C)(C)NC(=O)[C@H](Cc1c[nH]cn1)NC(=O)[C@@H]1CCCN1)C(=O)N[C@@H](Cc1ccccc1)C(=O)N[C@H](C(=O)N[C@@H](CO)C(=O)N[C@@H](CC(=O)O)C(=O)N[C@@H](Cc1ccc(-c2ccccc2)cc1)C(=O)N[C@@H](Cc1ccc(-c2ccccc2)cc1)C(N)=O)[C@@H](C)O` [2-4, H2N-Pro-His-Aib-Glu-Gly-Thr-Phe-Thr-Ser-Asp-Bip-Bip-C(O)NH2] (H-PH[Aib]EGTFTSD[Bip][Bip]-NH2) returned an EC50 under setting [3] of 14.7 nM.

Turning to `C[C@@H](O)[C@H](NC(=O)CNC(=O)[C@H](CCC(=O)O)NC(=O)C(C)(C)NC(=O)[C@H](Cc1c[nH]cn1)NC(=O)[C@@H](N)Cc1c[nH]c2ccccc12)C(=O)N[C@@H](Cc1ccccc1)C(=O)N[C@H](C(=O)N[C@@H](CO)C(=O)N[C@@H](CC(=O)O)C(=O)N[C@@H](Cc1ccc(-c2ccccc2)cc1)C(=O)N[C@@H](Cc1ccc(-c2ccccc2)cc1)C(N)=O)[C@@H](C)O` [2-5, H2N-Trp-His-Aib-Glu-Gly-Thr-Phe-Thr-Ser-Asp-Bip-Bip-C(O)NH2] (H-WH[Aib]EGTFTSD[Bip][Bip]-NH2), under setting [3], the EC50 stood at 10.9 nM.

`CC(C)C[C@H](NC(=O)[C@@H](N)CCC(=O)O)C(=O)NC(C)(C)C(=O)N[C@@H](CCC(=O)O)C(=O)NCC(=O)N[C@H](C(=O)N[C@@](C)(Cc1ccccc1F)C(=O)N[C@H](C(=O)N[C@@H](CO)C(=O)N[C@@H](CC(=O)O)C(=O)N[C@@H](Cc1ccc(-c2ccccc2)cc1)C(=O)N[C@@H](Cc1ccc(-c2ccccc2)cc1)C(N)=O)[C@@H](C)O)[C@@H](C)O` [2-6, H2N-Glu-Leu-Aib-Glu-Gly-Thr-α-MePhe(2-F)-Thr-Ser-Asp-Bip-Bip-C(O)NH2] (H-EL[Aib]EGT[αMePhe(2-F)]TSD[Bip][Bip]-NH2) came in with an EC50 under setting [3] of 9.2 nM.

Molecule `CC(C)C[C@H](NC(=O)[C@@H](N)CCC(=O)O)C(=O)NC(C)(C)C(=O)N[C@@H](CC(=O)O)C(=O)NCC(=O)N[C@H](C(=O)N[C@@](C)(Cc1ccccc1F)C(=O)N[C@H](C(=O)N[C@@H](CO)C(=O)N[C@@H](CC(=O)O)C(=O)N[C@@H](Cc1ccc(-c2ccccc2)cc1)C(=O)N[C@@H](Cc1ccc(-c2ccccc2)cc1)C(N)=O)[C@@H](C)O)[C@@H](C)O` [2-7, H2N-Glu-Leu-Aib-Asp-Gly-Thr-α-MePhe(2-F)-Thr-Ser-Asp-Bip-Bip-C(O)NH2] (H-EL[Aib]DGT[αMePhe(2-F)]TSD[Bip][Bip]-NH2) showed an EC50 under setting [3] of 3.1 nM.

In turn, `CC(C)C[C@H](NC(=O)[C@@H](N)Cc1ccccc1)C(=O)NC(C)(C)C(=O)N[C@@H](CCC(=O)O)C(=O)NCC(=O)N[C@H](C(=O)N[C@@](C)(Cc1ccccc1F)C(=O)N[C@H](C(=O)N[C@@H](CO)C(=O)N[C@@H](CC(=O)O)C(=O)N[C@@H](Cc1ccc(-c2ccccc2)cc1)C(=O)N[C@@H](Cc1ccc(-c2ccccc2)cc1)C(N)=O)[C@@H](C)O)[C@@H](C)O` [2-8, H2N-Phe-Leu-Aib-Glu-Gly-Thr-α-MePhe(2-F)-Thr-Ser-Asp-Bip-Bip-C(O)NH2] (H-FL[Aib]EGT[αMePhe(2-F)]TSD[Bip][Bip]-NH2) returned an EC50 under setting [3] of 4.1 nM.
